The values that follow come from patent US12583866B2, “Pyrido[2,3-b][1,4]oxazines or tetrahydropyrido[2,3-b][1,4]oxazepines as IAP antagonists” (BEIGENE, LTD., priority 2020, dated 2026).

Test [1] has as its target T1, recombinant human cIAP1-BIR3 protein (Homo sapiens, UniProt Q13490).
T1 construct: recombinant human cIAP1-BIR3 protein; purchased Reaction biology APT-11-370
Put plainly: Recombinant human c-IAP1-BIR3 biochemical assay (HTRF, peptide displacement). The note with it: 1.2 nM cIAP1-BIR3, 3 nM AbuRPF-K(5-Fam)-NH2 peptide, read-out: Protein binding IC50 (nM) c-IAP1. The essentials: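 1.2 nM cIAP1-BIR3 preincubated 1 h at room temperature with compound (10 points, 4-fold, top 10 uM) in 20 mM HEPES pH 7.5, 50 mM NaCl, 1 mM DTT; 3 nM AbuRPF-K(5-Fam)-NH2 then added for 1 h, then anti-6His Tb cryptate for 1 h. 520/490 nm ratio; IC50 by four-parameter logistic fit.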
(In general: TR-FRET usually uses a lanthanide donor and a delayed reading to cut background.)

For test [2], the target named is T2, recombinant human XIAP-BIR3 protein (Homo sapiens, UniProt P98170).
T2 construct: recombinant human XIAP-BIR3 protein; purchased Reaction biology APT-11-374
Put plainly: Recombinant human XIAP-BIR3 biochemical assay (HTRF, peptide displacement). The note with it: 3.7 nM XIAP-BIR3, 7.6 nM AbuRPF-K(5-Fam)-NH2 peptide, read-out: Protein binding IC50 (nM) XIAP. The essentials: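 3.7 nM His-tagged XIAP-BIR3 was preincubated 1 h RT with compound (top 10 µM, 4-fold, 10 points) in 20 mM HEPES pH 7.5, 50 mM NaCl, 0.005% Tween-20, 1 mM DTT. 7.6 nM AbuRPF-K(5-Fam)-NH2 peptide was then added, followed by anti-6His Tb cryptate, 1 h each. HTRF 520/490 nm ratio; four-parameter logistic IC50.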

The target of test [3] is T3, recombinant human cIAP2-BIR3 protein (Homo sapiens, UniProt Q13489).
T3 construct: recombinant human cIAP2-BIR3 protein; purchased Reaction biology APT-11-372
Put plainly: Recombinant human c-IAP2-BIR3 biochemical assay (HTRF, peptide displacement). The note with it: 3.7 nM cIAP2-BIR3, 3.7 nM AbuRPF-K(5-Fam)-NH2 peptide, read-out: Protein binding IC50 (nM) c-IAP2. The essentials: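 3.7 nM protein pre-incubated 1 h at room temperature with compounds (top 10 uM, 4-fold, 10 points) in 20 mM HEPES pH 7.5, 50 mM NaCl, 0.005% Tween-20, 1 mM DTT. Then 3.7 nM AbuRPF-K(5-Fam)-NH2 for 1 h, then anti-6His Tb cryptate 1 h. IC50 from 520/490 nm HTRF ratio, four-parameter logistic fit.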

Counter-ions that a name gives are not always drawn.

T3 sequence (Q13489 238-349 limits assumed): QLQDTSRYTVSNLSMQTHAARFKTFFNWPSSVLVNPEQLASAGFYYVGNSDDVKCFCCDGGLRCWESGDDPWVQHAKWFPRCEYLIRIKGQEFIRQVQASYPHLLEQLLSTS
T2 sequence (P98170 241-356 limits assumed): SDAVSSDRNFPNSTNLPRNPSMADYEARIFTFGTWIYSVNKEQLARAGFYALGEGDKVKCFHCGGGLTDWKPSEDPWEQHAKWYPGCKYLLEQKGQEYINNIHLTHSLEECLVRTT
T1 sequence (Q13490 253-363 limits assumed): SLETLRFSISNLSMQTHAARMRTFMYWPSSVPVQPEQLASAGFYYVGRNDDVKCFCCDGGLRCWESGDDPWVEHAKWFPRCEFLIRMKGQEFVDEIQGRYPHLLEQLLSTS

As to `C[C@@H]1CN(CC(=O)N2c3cc(Cc4ccc(F)cc4)cnc3OC[C@@H]2C2CCCCC2)[C@@H](CN2[C@H](C)COC[C@H]2C)CN1` [Compound 43, 1-((S)-2-cyclohexyl-7-(4-fluorobenzyl)-2,3-dihydro-1H-pyrido[2,3-b][1,4]oxazin-1-yl)-2-((2R,5R)-2-(((3R,5R)-3,5-dimethylmorpholino)methyl)-5-methylpiperazin-1-yl)ethan-1-one], the values for the IC50 in test [1], in test [2] and in test [3] were 0.23 nM, 23 nM and 0.27 nM, respectively.

Regarding `C[C@@H]1CN(CC(=O)N2c3cc(Cc4ccc(F)cc4)c(CO)nc3OC[C@@H]2C)[C@@H](CN2C[C@H](C)OC[C@H]2C)CN1` [Compound 49], the IC50 in test [1] turned out to be 0.3 nM; in test [2], 3.6 nM; in test [3] it was 0.48 nM.

In the case of `C[C@@H]1CN(CC(=O)N2c3cc(Cc4ccc(F)cc4)cnc3OC[C@@H]2c2ccccc2)[C@@H](CN2[C@H](C)COC[C@H]2C)CN1` [Compound 44], the IC50 in test [1] was determined as 0.36 nM; in test [2] it was 20 nM; in test [3], 0.93 nM.

`C[C@@H]1CN(CC(=O)N2c3cc(Cc4ccc(F)cc4)cnc3OCC23CC3)[C@@H](CN2CCOC[C@H]2C)CN1` [Compound 20, 1-(7′-(4-fluorobenzyl)-1′H,3′H-spiro[cyclopropane-1,2′-pyrido[2,3-b][1,4]oxazin]-1′-yl)-2-((2R,5R)-5-methyl-2-(((R)-3-methylmorpholino)methyl)piperazin-1-yl)ethan-1-one hydrochloride]: the IC50 in test [1] amounted to 9.9 nM; in test [2], 140 nM; in test [3] it was 25 nM.

Consider `CC(C)C[C@H]1COc2ncc(Cc3ccc(F)cc3)cc2N1C(=O)CN1C[C@@H](C)NC[C@@H]1CN1CCOC[C@H]1C` [Compound 33], for which the IC50 worked out at 0.74 nM in test [1], 47 nM in test [2] and 1.8 nM in test [3].

Take `C[C@@H]1CN(CC(=O)N2c3cc(Cc4ccc(F)cc4)c(-c4ccc(F)cc4)nc3OC[C@@H]2C)[C@@H](CN2[C@H](C)COC[C@H]2C)CN1` [Compound 113]: the results for the IC50 in test [1], in test [2] and in test [3] were 0.25 nM, 5.4 nM and 0.36 nM, respectively.

`C[C@@H]1CN(CC(=O)N2c3cc(Cc4ccc(F)cc4)c(CO)nc3OC[C@@H]2C)[C@@H](CN2C3CCC2COC3)CN1` [Compound 86]: the IC50 in test [1] is 0.89 nM; in test [2], 15 nM; in test [3], 0.95 nM.

Turning to `C[C@@H]1CN(CC(=O)N2c3cc(Cc4ccc(F)cc4)c(C(=O)NCCO)nc3OC[C@@H]2C)[C@@H](CN2[C@H](C)COC[C@H]2C)CN1` [Example 73, (S)-1-(2-((2R,5R)-2-(((3R,5R)-3,5-dimethylmorpholino)methyl)-5-methylpiperazin-1-yl)acetyl)-7-(4-fluorobenzyl)-N-(2-hydroxyethyl)-2-methyl-2,3-dihydro-1H-pyrido[2,3-b][1,4]oxazine-6-carboxamide], the IC50 in test [1] stood at 0.18 nM; in test [2] it was 4.3 nM; in test [3], 0.29 nM.

As to `C[C@@H]1CN(CC(=O)N2c3cc(Cc4ccc(F)cc4)cnc3OC[C@@H]2C)[C@@H](CN2CCOC[C@H]2C)CN1` [Compound 19A, 1-((S)-7-(4-fluorobenzyl)-2-methyl-2,3-dihydro-1H-pyrido[2,3-b][1,4]oxazin-1-yl)-2-((2R,5R)-5-methyl-2-(((R)-3-methylmorpholino)methyl)piperazin-1-yl)ethan-1-one], the values for the IC50 in test [1], in test [2] and in test [3] were 0.13 nM, 2.7 nM and 0.25 nM, respectively.

For the compound `C[C@@H]1CN(CC(=O)N2c3cc(Cc4ccc(F)cc4)c(CO)nc3OC[C@@H]2C)[C@@H](CN2CCOC[C@H]2C(F)F)CN1` [Compound 55], the IC50 came out at 1.3 nM in test [1], 34 nM in test [2] and 1.9 nM in test [3].

Consider `C[C@@H]1CN(CC(=O)N2c3cc(Cc4ccc(F)cc4)c(CO)nc3OC[C@@H]2C)[C@@H](CN2CCOC[C@H]2C)CN1` [Compound 25, 1-((S)-7-(4-fluorobenzyl)-6-(hydroxymethyl)-2-methyl-2,3-dihydro-1H-pyrido[2,3-b][1,4]oxazin-1-yl)-2-((2R,5R)-5-methyl-2-(((R)-3-methylmorpholino)methyl)piperazin-1-yl)ethan-1-one], for which the half-inhibitory concentration (IC50) came to 0.3 nM in test [1], 6 nM in test [2] and 0.5 nM in test [3].

Consider `CC(C)OC[C@H]1COc2ncc(Cc3ccc(F)cc3)cc2N1C(=O)CN1C[C@@H](C)NC[C@@H]1CN1CCOC[C@H]1C` [Compound 38, 1-((S)-7-(4-fluorobenzyl)-2-(isopropoxymethyl)-2,3-dihydro-1H-pyrido[2,3-b][1,4]oxazin-1-yl)-2-((2R,5R)-5-methyl-2-(((R)-3-methylmorpholino)methyl)piperazin-1-yl)ethan-1-one], for which the IC50 in test [1] came to 0.26 nM; in test [2], 49 nM; in test [3], 0.83 nM.

Regarding `COC[C@H]1COc2nc(CO)c(Cc3ccc(F)cc3)cc2N1C(=O)CN1C[C@@H](C)NC[C@@H]1CN1[C@H](C)COC[C@H]1C` [Compound 58, 2-((2R,5R)-2-(((3R,5R)-3,5-dimethylmorpholino)methyl)-5-methylpiperazin-1-yl)-1-((S)-7-(4-fluorobenzyl)-6-(hydroxymethyl)-2-(methoxymethyl)-2,3-dihydro-1H-pyrido[2,3-b][1,4]oxazin-1-yl)ethan-1-one], the IC50 amounted to 0.11 nM in test [1], 9.5 nM in test [2] and 0.17 nM in test [3].

In the case of `C[C@@H]1CN(CC(=O)N2CCOc3ncc(Cc4ccc(F)cc4)cc32)[C@@H](CN2C[C@H]3C[C@@H]2CO3)CN1` [Compound 14], the IC50 is 3.6 nM in test [1], 122 nM in test [2] and 9.8 nM in test [3].

With `C[C@@H]1CN(CC(=O)N2c3cc(Cc4ccc(F)cc4F)c(CO)nc3OC[C@@H]2C)[C@@H](CN2[C@H](C)COC[C@H]2C)CN1` [Example 60, 1-((S)-7-(2,4-difluorobenzyl)-6-(hydroxymethyl)-2-methyl-2,3-dihydro-1H-pyrido[2,3-b][1,4]oxazin-1-yl)-2-((2R,5R)-2-(((3R,5R)-3,5-dimethylmorpholino)methyl)-5-methylpiperazin-1-yl)ethan-1-one], the IC50 in test [1] worked out at 0.13 nM; in test [2], 7.5 nM; in test [3], 0.34 nM.

Regarding `C[C@@H]1CN(CC(=O)N2c3cc(Cc4ccc(F)cc4)c(C(=O)NCCN4CCN(C)CC4)nc3OC[C@@H]2C)[C@@H](CN2[C@H](C)COC[C@H]2C)CN1` [Compound 99, (S)-1-(2-((2R,5R)-2-(((3R,5R)-3,5-dimethylmorpholino)methyl)-5-methylpiperazin-1-yl)acetyl)-7-(4-fluorobenzyl)-2-methyl-N-(2-(4-methylpiperazin-1-yl)ethyl)-2,3-dihydro-1H-pyrido[2,3-b][1,4]oxazine-6-carboxamide], the IC50 in test [1] was 0.16 nM; in test [2], 12.4 nM; in test [3], 0.43 nM.

In the case of `CCC(=O)Nc1nc2c(cc1Cc1ccc(F)cc1)N(C(=O)CN1C[C@@H](C)NC[C@@H]1CN1[C@H](C)COC[C@H]1C)[C@@H](C)CO2` [Compound 117], the IC50 in test [1] is 0.15 nM; in test [2] it was 6.5 nM; in test [3], 0.23 nM.

For the compound `C[C@@H]1CN(CC(=O)N2c3cc(Cc4ccc(F)cc4)c(C(=O)N4CC[C@@H](F)C4)nc3OC[C@@H]2C)[C@@H](CN2[C@H](C)COC[C@H]2C)CN1` [Compound 101, 2-((2R,5R)-2-(((3R,5R)-3,5-dimethylmorpholino)methyl)-5-methylpiperazin-1-yl)-1-((S)-7-(4-fluorobenzyl)-6-((R)-3-fluoropyrrolidine-1-carbonyl)-2-methyl-2,3-dihydro-1H-pyrido[2,3-b][1,4]oxazin-1-yl)ethan-1-one], the 50% inhibitory concentration (IC50) was 0.19 nM in test [1], 2.5 nM in test [2] and 0.37 nM in test [3].

Take `C[C@@H]1CN(CC(=O)N2c3cc(Cc4ccc(F)cc4)c(CO)nc3OC[C@@H]2C)[C@@H](CN2CCOCC2(C)C)CN1` [Compound 48]: the figures for the IC50 in test [1], in test [2] and in test [3] were 0.45 nM, 12 nM and 0.79 nM, respectively.

As for `C[C@@H]1CN(CC(=O)N2c3cc(Cc4ccc(F)cc4)c(C(=O)NCC4CCN(C)CC4)nc3OC[C@@H]2C)[C@@H](CN2[C@H](C)COC[C@H]2C)CN1` [Compound 98, (S)-1-(2-((2R,5R)-2-(((3R,5R)-3,5-dimethylmorpholino)methyl)-5-methylpiperazin-1-yl)acetyl)-7-(4-fluorobenzyl)-2-methyl-N-((1-methylpiperidin-4-yl)methyl)-2,3-dihydro-1H-pyrido[2,3-b][1,4]oxazine-6-carb oxamide], the IC50 in test [1] is 0.13 nM; in test [2], 8.2 nM; in test [3], 0.29 nM.

In general, IC50 refers to the concentration that gives 50% inhibition.
